Holding throughout (experiment): TR-FRET Competition Assay
Common to all, as to settings: pH 7.5
On the technique in general: Time-resolved FRET reads energy transfer from a long-lived donor to a nearby acceptor.

Assay [1] has as its target Tyrosine-protein kinase Blk (Homo sapiens, UniProt P51451). On the procedure:
(§1) Assay buffer was 20 mM HEPES, pH 7.5, 10 mM MgCl2, 0.01% BSA, 1 mM DTT, 0.0005% Tween 20, and 2% DMSO. […] The assays were read using an EnVi

Assay [2] addresses T1, Tyrosine-protein kinase TXK (Homo sapiens, UniProt P42681).
T1 sequence (P42681 whole entry): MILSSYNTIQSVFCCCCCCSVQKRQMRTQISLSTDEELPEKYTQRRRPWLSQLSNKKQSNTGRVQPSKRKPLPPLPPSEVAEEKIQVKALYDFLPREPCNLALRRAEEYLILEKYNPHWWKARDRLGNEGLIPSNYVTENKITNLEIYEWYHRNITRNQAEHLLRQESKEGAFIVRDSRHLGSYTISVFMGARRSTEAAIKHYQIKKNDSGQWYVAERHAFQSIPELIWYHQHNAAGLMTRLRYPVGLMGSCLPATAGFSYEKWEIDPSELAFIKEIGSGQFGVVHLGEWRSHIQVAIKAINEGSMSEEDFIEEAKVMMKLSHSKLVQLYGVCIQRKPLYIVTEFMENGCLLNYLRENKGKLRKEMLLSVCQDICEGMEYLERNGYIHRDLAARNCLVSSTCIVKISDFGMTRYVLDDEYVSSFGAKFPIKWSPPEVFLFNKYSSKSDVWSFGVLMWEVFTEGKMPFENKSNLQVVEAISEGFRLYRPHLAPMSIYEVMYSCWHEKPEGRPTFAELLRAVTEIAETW
On the procedure:
as §1

Assay [3] has as its target T2, Tyrosine-protein kinase Tec (Homo sapiens, UniProt P42680).
T2 sequence (P42680 whole entry): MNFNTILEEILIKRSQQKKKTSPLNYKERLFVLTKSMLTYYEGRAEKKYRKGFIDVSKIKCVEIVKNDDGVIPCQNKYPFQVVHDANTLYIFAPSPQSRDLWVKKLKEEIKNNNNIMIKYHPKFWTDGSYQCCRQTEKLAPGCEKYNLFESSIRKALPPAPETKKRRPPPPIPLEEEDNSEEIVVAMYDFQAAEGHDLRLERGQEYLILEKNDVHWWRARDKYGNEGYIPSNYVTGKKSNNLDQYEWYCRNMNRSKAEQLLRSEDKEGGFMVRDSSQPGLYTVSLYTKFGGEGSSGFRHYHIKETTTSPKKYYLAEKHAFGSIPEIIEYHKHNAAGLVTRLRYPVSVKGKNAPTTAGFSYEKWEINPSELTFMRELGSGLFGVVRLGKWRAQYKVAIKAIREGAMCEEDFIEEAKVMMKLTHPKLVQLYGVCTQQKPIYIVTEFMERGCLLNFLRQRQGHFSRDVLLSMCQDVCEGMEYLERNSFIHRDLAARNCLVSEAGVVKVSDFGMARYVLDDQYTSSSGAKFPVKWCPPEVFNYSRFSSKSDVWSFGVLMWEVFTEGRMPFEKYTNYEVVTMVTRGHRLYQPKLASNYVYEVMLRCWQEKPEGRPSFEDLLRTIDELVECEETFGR
On the procedure:
as §1

Sequence of Tyrosine-protein kinase Blk (P51451 whole entry): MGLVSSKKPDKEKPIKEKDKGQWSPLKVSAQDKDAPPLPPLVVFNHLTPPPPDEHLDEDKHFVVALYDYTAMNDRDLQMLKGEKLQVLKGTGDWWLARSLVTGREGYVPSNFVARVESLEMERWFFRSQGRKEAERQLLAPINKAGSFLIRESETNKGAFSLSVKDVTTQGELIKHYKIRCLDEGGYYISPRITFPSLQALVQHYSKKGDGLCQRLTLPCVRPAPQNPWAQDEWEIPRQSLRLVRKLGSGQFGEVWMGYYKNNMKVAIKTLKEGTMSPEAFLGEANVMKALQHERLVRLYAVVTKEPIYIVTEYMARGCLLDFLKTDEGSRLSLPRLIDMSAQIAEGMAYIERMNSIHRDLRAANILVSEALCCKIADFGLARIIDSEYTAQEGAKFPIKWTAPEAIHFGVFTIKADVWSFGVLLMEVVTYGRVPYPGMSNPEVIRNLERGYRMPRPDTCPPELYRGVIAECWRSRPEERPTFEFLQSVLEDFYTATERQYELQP

Regarding `C=CC(=O)N1C[C@H](Nc2ncnc3[nH]ccc23)CC[C@@H]1C` [PF-06651600], the Ki in assay [1] was 32.4 nM; in assay [2] it was 0.131 nM; in assay [3] it was 0.679 nM.

By Ki is commonly meant a measure of affinity in units of concentration, obtained from inhibition or displacement. The low end stands for higher affinity, the high end for lower affinity.
